Converted amounts (≈) assume the structure as drawn. Where two headings read alike, the source gives them in different places.
Assays:
[1] = system: Staphylococcus aureus FDA 209P; assay: MIC, broth dilution method; format: cell-based; conditions: FDA209P, Table 5, 35° C. 20 hours, read-out: Minimum inhibitory concentration
[2] = system: Diplococcus pneumoniae Type III; assay: MIC, broth dilution method; format: cell-based; conditions: Streptococcus pneumoniae, 20 h; Table 5; 10% horse blood supplemented into the medium; read-out: Minimum inhibitory concentration
[3] = system: Enterobacter sp. E-8; assay: MIC, broth dilution method; conditions: SP.E8, 20 h, read-out: Minimum inhibitory concentration
[4] = target: T1, Exo-penicillinase of Bacillus licheniformis 749/C (ATCC 25972) (Bacillus licheniformis, UniProt P00808); assay: Susceptibility to beta-lactamase as enzymic substrate; format: biochemical; conditions: 15 minutes, 30° C., PS-6 3.3 μg/ml, optical density at 301 nm
T1 construct: made in house; host or cells: Bacillus licheniformis 749/C (ATCC 25972)
T1 sequence (P00808 43-307): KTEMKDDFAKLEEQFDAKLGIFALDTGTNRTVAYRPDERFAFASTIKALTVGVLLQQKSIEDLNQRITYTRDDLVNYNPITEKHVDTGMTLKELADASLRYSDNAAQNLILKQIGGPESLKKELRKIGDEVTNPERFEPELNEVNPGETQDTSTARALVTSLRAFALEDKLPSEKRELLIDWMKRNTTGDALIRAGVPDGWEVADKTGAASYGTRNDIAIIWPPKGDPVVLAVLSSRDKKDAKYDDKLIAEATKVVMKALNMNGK
Description: (a) Exo-penicillinase of Bacillus licheniformis 749/C (ATCC 25972). Purified by cephalexin-Sepharose 4B (Pharmacia Fine Chemicals AB) affinity column chromatography. The potency of this enzyme preparation was 16,600 units/ml. when the hydrolysis of potassium penicillin G was measured by iodometry at 30° C. in M/10, pH 6.8, phosphate buffer. One unit of penicillinase means the amount of enzyme that can hydrolyze 1 micromole of penicillin G for 60 minutes at 30° C. with a pH 6.8.
Time course of the hydrolysis was traced at 30° C. by determining the decrease in optical density at 301 nm which corresponds specifically to the concentration of antibiotic PS-6. As described in Japanese Patent Application No. 94651/77, the antibiotic PS-5 sodium salt preparation gave a E1 cm^1% value of 267.5 at the λmax of 301 nm. If this preparation contained no water of crystallization, its epsilon value would be 8560.
As 5% of the initial optical density of antibiotic PS-5 at 301 nm remained even after the complete decomposition with hydroxylamine or beta-lactamase, the differential optical density of this substrate at 301 nm was supposed to be Δε=8132. This was supposed to be applicable to the antibiotic PS-6, and the following calculation was carried out.
(a) Exo-penicillinase of Bacillus licheniformis 749/C.

[5] = system: Bacillus subtilis ATCC 6633; assay: MIC, broth dilution method; conditions: ATCC6633, 20 h, read-out: Minimum inhibitory concentration
[6] = system: Proteus mirabilis P-6; assay: MIC, broth dilution method; conditions: P6, 20 h, read-out: Minimum inhibitory concentration
[7] = system: Staphylococcus aureus Bx-1633; assay: MIC, broth dilution method; conditions: BX1633, 20 h, read-out: Minimum inhibitory concentration
[8] = system: Staphylococcus aureus Rassell; assay: MIC, broth dilution method; conditions: 20 h, read-out: Minimum inhibitory concentration
[9] = system: Providencia sp. P-8; assay: MIC, broth dilution method; conditions: SP.P8, 20 h, read-out: Minimum inhibitory concentration
[10] = system: Proteus sp. P-22; assay: MIC, broth dilution method; conditions: 20 h, read-out: Minimum inhibitory concentration
[11] = system: Streptococcus pyogenes NY-5; assay: MIC, broth dilution method; conditions: Streptococcus pyogenes, NY5, 20 h, read-out: Minimum inhibitory concentration
[12] = system: Serratia marcescens S-18; assay: MIC, broth dilution method; conditions: S18, 20 h, read-out: Minimum inhibitory concentration
[13] = system: Staphylococcus aureus FDA 209P; assay: MIC, broth dilution method; format: cell-based; conditions: Staphylococcus aureus, FDA209P; Table 7; no unit in the head; read-out: Minimum inhibitory concentration

Row | Structure (SMILES) | MIC [1] [µg/mL] | MIC [2] [µg/mL] | MIC [3] [µg/mL] | Hydrolysis by the beta-lactamase [4] | MIC [5] [µg/mL] | MIC [6] [µg/mL] | MIC [7] [µg/mL] | MIC [8] [µg/mL] | MIC [9] [µg/mL] | MIC [10] [µg/mL] | MIC [11] [µg/mL] | MIC [12] [µg/mL] | MIC [13] [µg/mL]
1 | CC(=O)NCCSC1=C(C(=O)O)N2C(=O)C(C(C)C)C2C1 (stereo not shown) [Antibiotic PS-6] | 0.33 (≈ 1.06 µM) | 0.17 (≈ 0.544 µM) | 12.5 (≈ 40 µM) | without a substantial hydrolysis | 1.34 (≈ 4.29 µM) | 12.5 (≈ 40 µM) | 0.33 (≈ 1.06 µM) | 1.34 (≈ 4.29 µM) | 12.5 (≈ 40 µM) | 12.5 (≈ 40 µM) | 0.33 (≈ 1.06 µM) | 50 (≈ 160 µM) | –
2 | CCC1C(=O)N2C(C(=O)O)=C(SC=CNC(C)=O)CC12 (stereo not shown) [Antibiotic PS-7] | – | – | – | – | – | – | – | – | – | – | – | – | < 0.19

— US4368203A, “Antibiotics and derivatives thereof having β-lactamase inhibitory activity and production thereof” (priority 1977, dated 1983)
